Laboratory results: ChEMBL document CHEMBL1201862, “PubChem BioAssay data set” (2004)
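Cells were grown in 96-well plates and exposed to each compound for 48 hours at five concentrations; endpoints were interpolated linearly between bracketing concentrations, or set to the highest concentration if not reached. Abbreviation: GI50, concentration required for 50% inhibition of growth.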 Active and inactive are the calls of the source. No stated cut-off is given here; in the data, active = GI50 up to about 1.1 µM and inactive = higher.

How the values were obtained:
Test in all cases: DTP human tumour cell line panel, 48 h
[1] = test system: NCI-H226
[2] = test system: MDA-MB-231
[3] = test system: HOP-62
[4] = test system: UO-31
[5] = test system: IGROV-1
[6] = test system: NCI-H522
[7] = test system: CCRF-CEM
[8] = test system: SK-MEL-2
[9] = test system: HL-60
[10] = test system: SK-MEL-28
[11] = test system: CAKI-1
[12] = test system: EKVX
[13] = test system: TK-10
[14] = test system: SN12C
[15] = test system: SF-295
[16] = test system: U-251
[17] = test system: HOP-92
[18] = test system: OVCAR-5
[19] = test system: K562

SMILES | GI50 [1] | GI50 [2] | GI50 [3] | GI50 [4] | GI50 [5] | GI50 [6] | GI50 [7] | GI50 [8] | GI50 [9] | GI50 [10] | GI50 [11] | GI50 [12] | GI50 [13] | GI50 [14] | GI50 [15] | GI50 [16] | GI50 [17] | GI50 [18] | GI50 [19]
CSC1C(=O)Nc2ccc3ccccc3c21 (stereo not given) | 45.5 µM (inactive) | 23.2 µM (inactive) | 34.3 µM (inactive) | 16.1 µM (inactive) | 16.6 µM (inactive) | 2.54 µM (inactive) | 21 µM (inactive) | 27.1 µM (inactive) | 1.54 µM (inactive) | > 100 µM (inactive) | 19.1 µM (inactive) | 15.8 µM (inactive) | 16.8 µM (inactive) | 20.6 µM (inactive) | > 100 µM (inactive) | 17.8 µM (inactive) | 16.3 µM (inactive) | > 100 µM (inactive) | 
Oc1ccc(Nc2nc(Cl)c3nc[nH]c3n2)cc1 | > 100 µM (inactive) | > 100 µM (inactive) | > 100 µM (inactive) | > 100 µM (inactive) | 67.6 µM (inactive) | > 100 µM (inactive) | 37.9 µM (inactive) | 27.2 µM (inactive) | 34.5 µM (inactive) |  | 61.9 µM (inactive) | > 100 µM (inactive) | > 100 µM (inactive) | > 100 µM (inactive) | > 100 µM (inactive) | > 100 µM (inactive) | 14 µM (inactive) | > 100 µM (inactive) | 50.8 µM (inactive)
CCOc1ccc2nc(NC(=O)/C(CC(=O)CC(C3=C(O)c4ccccc4CC3=O)c3ccccc3)=N\O)sc2c1 (stereo not given) | > 100 µM (inactive) | > 100 µM (inactive) |  | > 100 µM (inactive) | > 100 µM (inactive) | > 100 µM (inactive) | > 100 µM (inactive) | > 100 µM (inactive) | > 100 µM (inactive) | > 100 µM (inactive) | > 100 µM (inactive) | > 100 µM (inactive) |  | > 100 µM (inactive) | > 100 µM (inactive) | > 100 µM (inactive) | > 100 µM (inactive) | > 100 µM (inactive) | > 100 µM (inactive)
COc1ccccc1N1C(=O)CS(=O)(=O)C1c1cccc(Oc2ccccc2)c1 (stereo not given) | 14.6 µM (inactive) | 15.5 µM (inactive) | 18.6 µM (inactive) | 19.9 µM (inactive) |  | 12.6 µM (inactive) | 25.8 µM (inactive) | 13 µM (inactive) | 12.7 µM (inactive) | 17.5 µM (inactive) | 19.9 µM (inactive) | 20.8 µM (inactive) | 18.5 µM (inactive) | 17.1 µM (inactive) | 16.7 µM (inactive) | 16.1 µM (inactive) | 10.8 µM (inactive) | 26.2 µM (inactive) | 4.06 µM (inactive)
O=C1Nc2ccccc2/C1=N/Nc1ccc([N+](=O)[O-])cc1[N+](=O)[O-] | 12 µM (inactive) | 13.2 µM (inactive) | 9.04 µM (inactive) | 13.2 µM (inactive) | 7.94 µM (inactive) | 12.9 µM (inactive) | > 100 µM (inactive) |  | > 100 µM (inactive) | 63 µM (inactive) | 20.4 µM (inactive) | 1.5 µM (inactive) | 9.08 µM (inactive) | 11.3 µM (inactive) | 8.77 µM (inactive) | 8.87 µM (inactive) | 3.58 µM (inactive) | 12.6 µM (inactive) | 32.4 µM (inactive)
Cc1c(C#N)c2nc3ccccc3n2c(=O)/c1=C/Nc1ccc(Cl)cc1 | 42.3 µM (inactive) | 24.8 µM (inactive) | 12.9 µM (inactive) | 15.7 µM (inactive) | 36.1 µM (inactive) | 46.2 µM (inactive) |  | 14.2 µM (inactive) | > 100 µM (inactive) | > 100 µM (inactive) | 11.3 µM (inactive) | 50.7 µM (inactive) | 14.2 µM (inactive) | 93.3 µM (inactive) | 7.71 µM (inactive) | 7.66 µM (inactive) | 20.1 µM (inactive) | 9.64 µM (inactive) | 2.72 µM (inactive)
CC(=O)c1sc2c(c1OC(=O)c1ccco1)c(=O)n(-c1ccccc1)c(=S)n2-c1ccccc1 | 3.58 µM (inactive) | 21.5 µM (inactive) | 25.1 µM (inactive) | 20.3 µM (inactive) | 23.1 µM (inactive) | 19.9 µM (inactive) | 3.93 µM (inactive) | 10.4 µM (inactive) | 19.8 µM (inactive) | 23.8 µM (inactive) | 32.5 µM (inactive) | 26.4 µM (inactive) | 31.8 µM (inactive) | 26 µM (inactive) | 5.16 µM (inactive) | 23.3 µM (inactive) | 5.43 µM (inactive) |  | 30.8 µM (inactive)
O=c1[nH]/c(=C/c2ccc(OCc3ccccc3)cn2)c(=O)[nH]/c1=C/c1ccc(F)cc1 | 2.22 µM (inactive) | 8.13 µM (inactive) | 0.239 µM (active) | 0.498 µM (active) | 0.335 µM (active) | 0.41 µM (active) | 0.458 µM (active) | 7.35 µM (inactive) | 0.217 µM (active) |  |  | 3.49 µM (inactive) | 4.36 µM (inactive) | 0.785 µM (active) | 0.33 µM (active) | 1.05 µM (active) | 0.586 µM (active) | > 33.3 µM (inactive) | 0.154 µM (active)
O=C1CN2C(c3ccccc3)=NN(c3ccc([N+](=O)[O-])cc3)C2(c2ccccc2)c2cc(Cl)ccc2N1CC1CC1 (stereo not given) | > 100 µM (inactive) | > 100 µM (inactive) | > 100 µM (inactive) | > 100 µM (inactive) | > 100 µM (inactive) | > 100 µM (inactive) | > 100 µM (inactive) |  | < 0.01 µM (active) | > 100 µM (inactive) | > 100 µM (inactive) | > 100 µM (inactive) | > 100 µM (inactive) | > 100 µM (inactive) | > 100 µM (inactive) | > 100 µM (inactive) | > 100 µM (inactive) | > 100 µM (inactive) | > 100 µM (inactive)
CC(=O)O[C@@H]1[C@@H](C)[C@]2(CC(c3ccoc3)OC2O)C2CCC3O[C@]3(C)[C@]2(C)[C@@H]1OC(C)=O (stereo not given in full) | 27.7 µM (inactive) | > 100 µM (inactive) |  | 37.2 µM (inactive) | 41.8 µM (inactive) | 27.9 µM (inactive) | 18.2 µM (inactive) | 57.4 µM (inactive) | 18 µM (inactive) | 25.9 µM (inactive) | > 100 µM (inactive) | 56.4 µM (inactive) | 47.5 µM (inactive) | 39 µM (inactive) | 71.6 µM (inactive) | 83 µM (inactive) | 34 µM (inactive) | > 100 µM (inactive) | 
COP(=O)(O)/C=C/C(NC(=O)C(Cl)(Cl)Cl)c1ccccc1 (stereo not given) | > 100 µM (inactive) | > 100 µM (inactive) | > 100 µM (inactive) | > 100 µM (inactive) | > 100 µM (inactive) | > 100 µM (inactive) |  | > 100 µM (inactive) | > 100 µM (inactive) | > 100 µM (inactive) | > 100 µM (inactive) | > 100 µM (inactive) | > 100 µM (inactive) | > 100 µM (inactive) | > 100 µM (inactive) | > 100 µM (inactive) | > 100 µM (inactive) | > 100 µM (inactive) | > 100 µM (inactive)
